Measurements reported in paper PMC3404106, “Pharmacology of DB844, an Orally Active aza Analogue of Pafuramidine, in a Monkey Model of Second Stage Human African Trypanosomiasis” (PLoS Neglected Tropical Diseases, 2012).
Entries after “also recorded” stand apart in the source; their conditions may differ.

What was measured:
[1] = Pharmacokinetics (plasma and CSF) in infected monkeys after last DB844 dose; conditions: for Tmax: po
[2] = test system: Trypanosoma brucei rhodesiense KETRI 2537; set-up: method as in earlier work; conditions: treatment initiated at 28 DPI; unpublished TRC-KARI data; cited from earlier work
[3] = set-up: method as in PMID 20721830; conditions: extended phase I clinical trial, 14 day dose regimen of 100 mg bid; cited from earlier work
[4] = set-up: method as in PMID 17360833; conditions: dosed orally to cynomolgus monkey at 5 mg/kg; cited from earlier work
2nd stage HAT = test system: 2nd stage HAT; set-up: method as in PMID 19620327, PMID 19064893; conditions: cited from earlier work
[5] = Metabolism of DB844 in vervet monkey liver microsomes; type: in vitro ADME
Method: The metabolism of DB844 was investigated using liver microsomes, prepared from a male vervet monkey by XenoTech, LLC (Lenexa, KS), in the presence of NADPH as described previously with modifications. Briefly, incubation mixtures (1 ml at pH7.4, in triplicate) contained 10 µM DB844 and 0.2 mg/ml monkey liver microsomes. After a 5-min equilibration period at 37°C, reactions were initiated with the addition of NADPH. Aliquots (50 µl) of the reaction mixtures were removed at 0, 5, 10, 15, 30, 60, 90, and 120 min and mixed with 25 µl of ice-cold acetonitrile. The mixtures were centrifuged (10,000×g for 5 min at 4°C) and the supernatants were analyzed by HPLC/UV using the same method as previously described for DB289 [22]. […] DB844 and metabolites were quantified using a single-concentration calibration curve generated using synthetic standards.

Question: With N=C(N)c1ccc(-c2ccc(-c3ccc(C(=N)N)cn3)o2)cc1 [DB820] as the compound, how does the “sporadic CSF concentration” value ([1]; 2/7 monkeys (571 and 624), between 24 and 96 h post dose) read?
Answer: < 4 nM

Question: What about the “detection in the CSF” value ([1]; after last dose of DB844 6 mg/kg×14 days, samples at 1, 24, 96, 168 h and weekly) of the same compound?
Answer: not detected

Question: What about the concentration at 28 days ([1]; monkey, in vivo, 6 mg/kg) of the same compound?
Answer: 35 nM

Question: What about the Tmax ([1]; monkey, in vivo, 6 mg/kg, Tmax, plasma, after the 14th oral dose of DB844 at 6 mg/kg, n = 7, median, analyte = label) of the same compound?
Answer: 4.08 h

Question: What about the Tmax ([1]; monkey, in vivo, 6 mg/kg, time of peak plasma concentration, after the last (14th) dose of DB844 at 6 mg/kg, analyte = label) of the same compound?
Answer: 4 h

Question: What about the AUClast ([1]; plasma, after the 14th oral dose of DB844 at 6 mg/kg, n = 7, geometric mean, analyte = label) of the same compound?
Answer: 1400 nmol·days/L

Question: With CONC(=N)c1ccc(-c2ccc(-c3ccc(C(=N)NOC)cc3)o2)cc1 [pafuramidine, 2,5-bis(4-amidinophenyl)furan-bis-O-methylamidoxime] as the compound, how does the “cure in the vervet monkey model of CNS stage HAT” value [2] read?
Answer: non-curative; also recorded: did not cure any monkey

Question: And the “subjects who developed delayed renal insufficiency” value [3]?
Answer: 6%

Question: What about the Cmax [4] of the same compound?
Answer: 30 to 35 nM

Question: And the “cure against 2nd stage HAT in animal models” value (2nd stage HAT)?
Answer: did not achieve cure

Question: With N=C(N)c1ccc(OCCCCCOc2ccc(C(=N)N)cc2)cc1 [pentamidine] as the compound, how does the “cure in the vervet monkey model of CNS stage HAT” value [2] read?
Answer: non-curative; also recorded: did not cure any monkey

Question: And the “cure against 2nd stage HAT in animal models” value (2nd stage HAT)?
Answer: did not achieve cure

Question: For CO/N=C(/N)c1ccc(-c2ccc(-c3ccc(/C(N)=N/O)cc3)o2)nc1 [M1B], which “relative metabolite concentration in the drug/liver microsome mixture” value [5] is on record?
Answer: highest concentrations during the initial 20 minutes
